Test results as given in US4657897A, “N^6 -substituted adenosines for treating pain” (Warner-Lambert Company, priority 1985, dated 1987).
Read-outs that look alike come from different tables or passages of the source.

Tests used:
[1] = Mouse Activity and Screen Test (MAST), screen test failure (ST); assay type: in vivo, mouse (Swiss-Webster, male); settings: for Inhibition of screen test failure: percent of mice falling off the screen; for minimal effective dose: Mus musculus, ip, read-out: MAST ST LAD
Experimental: Treatments are administered intraperitoneally one hour prior to testing. […] Compounds are dissolved or suspended in 0.2% Methocel. Control animals are injected with Methocel.
The compounds are identified in the Examples.

adenosine A2 receptor = target: T1, adenosine A2 receptor (Rattus norvegicus, UniProt P30543); experiment: Adenosine Receptor Binding--A2 Receptor Affinity (RBA2), [3H]NECA binding, rat striatal membranes; set-up: species or system rat (mixed sex Sprague-Dawley; male Long-Evans); settings: 4 nM [3H]NECA, 50 nM N6-cyclopentyladenosine, 25° C., 60 min
T1 construct: 5 mg original tissue weight of rat weight of rat striatal membranes; tissue Pel-Freez (Rogers, Ark.) for the brains; host or cells: rat striatum (Sprague-Dawley; Long-Evans gave essentially identical results), membranes
Experimental: Adenosine Receptor Binding--A2 Receptor Affinity (RBA2)
Brains from 200-500 g mixed sex Sprague-Dawley rats were purchased from Pel-Freez (Rogers, Ark.). […] Brains were thawed and then kept on ice while the striata were dissected out. Striata were disrupted in 10 vol of ice-cold 50 mM Tris.HCl (pH 7.7 at 25° C., pH 8.26 at 5° C.) (Tris) for 30 seconds in a Polytron PT-10 (Brinkmann) at setting 5. The suspension was centrifuged at 50,000 xg for ten minutes, the supernatant discarded, the pellet resuspended in 10 vol ice-cold Tris as above, recentrifuged, resuspended at 1 g/5 ml, and stored in plastic vials at -70° C. […] When needed, tissue was thawed at room temperature, disrupted in a Polytron, and kept on ice until used.
Test compounds were dissolved at 10 mM in dimethylsulfoxide on the same day as the experiment, and diluted in dimethylsulfoxide to 100× the final incubation concentration. […] [^3 H]NECA was diluted to 40 nM in Tris. […] After all additions, the rack of tubes was vortexed, and the tubes were then incubated for 60 min at 25° C. in a shaking water bath. The rack of tubes was vortexed an additional time halfway through the incubation.
Incubations were terminated by filtration through 2.4 cm GF/B filters under reduced pressure. Each tube was filtered as follows: the contents of the tube were poured onto the filter, 4 ml of ice-cold Tris were added to the tube and the contents poured onto the filter, and the filter was washed twice with 4 ml of ice-cold Tris. The filtration was complete in about twelve seconds. Filters were put in scintillation vials, 8 ml of Formula 947 scintillation fluid added, and the vials left overnight, shaken, and counted in a liquid scintillation counter at 40% efficiency.
The IC50 was calculated by weighted nonlinear least squares curve-fitting to the mass-action equation. [formula] where Y is cpm bound
T is cpm total binding without drug
S is cpm specific binding without drug
D is the concentration of drug
K is the IC50 of the drug
Weighting factors were calculated under the assumption that the standard deviation was proportional to the predicted value of Y. Nonspecific binding was treated as a very large (infinite) concentration of drug in the computer analysis.

adenosine A1 receptor = target: T2, adenosine A1 receptor (Rattus norvegicus, UniProt P25099); experiment: Adenosine Receptor Binding--A1 Receptor Affinity (RBA1), [3H]-CHA binding, rat whole brain membranes; set-up: species or system rat (male Long Evans); settings: 1.0 nM [3H]-CHA, 25° C., 1 h
T2 construct: Whole brain minus cerebellum and brainstem from male Long Evans rats; from tissue; host or cells: rat whole brain minus cerebellum and brainstem (male Long Evans), membranes
T2 sequence (P25099 1-326): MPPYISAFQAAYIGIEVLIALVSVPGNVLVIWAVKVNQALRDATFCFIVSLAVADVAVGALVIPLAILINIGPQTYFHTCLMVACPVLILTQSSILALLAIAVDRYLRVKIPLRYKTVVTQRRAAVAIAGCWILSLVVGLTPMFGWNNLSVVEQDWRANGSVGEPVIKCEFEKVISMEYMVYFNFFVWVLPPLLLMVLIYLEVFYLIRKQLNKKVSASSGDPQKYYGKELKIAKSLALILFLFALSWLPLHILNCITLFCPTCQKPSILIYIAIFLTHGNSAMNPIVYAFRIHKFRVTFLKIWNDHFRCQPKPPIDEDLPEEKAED
Experimental: Adenosine Receptor Binding--A1 Receptor Affinity (RBA1)
Whole brain minus cerebellum and brainstem from male Long Evans rats (150-200 g) was homogenized in 30 volumes of ice-cold 0.05M Tris-HCl buffer pH 7.7 using a Brinkman Polytron PT-10, (setting number 6 for 20 seconds) and centrifuged for ten minutes at 20,000×g (Sorvall RC-2), 4° C. The supernatant was discarded, and the pellet was resuspended and centrifuged as before. The pellet was resuspended in 20 ml Tris-HCl buffer containing two International Units/ml of adenosine deaminase (Sigma type III from calf intestinal mucosa), incubated at 37° C. for 30 minutes, then subsequently at 0° C. for ten minutes. The homogenate was again centrifuged, and the final pellet was resuspended in ice-cold 0.05M Tris-HCl buffer pH 7.7 to a concentration of 20 mg/ml original wet tissue weight and used immediately.
Tissue homogenate (10 mg/ml) was incubated in 0.05M Tris-HCl buffer pH 7.7 containing 1.0 nM [^3 H]-N^6 -cyclohexyladenosine[^3 H]-CHA) with or without test agents in triplicate for one hour at 25° C. Incubation volume was 2 ml. Unbound [^3 H]-CHA was separated by rapid filtration under reduced pressure through Whatman glass fiber (GF/B) filters. The filters were rinsed three times with 5 ml of ice cold 0.05M Tris-HCl buffer pH 7.7. The radio-labeled ligand retained on the filter was measured by liquid scintillation spectrophotometry after shaking the filters for one hour or longer on a mechanical shaker in 10 ml of Beckman Ready-Solv HP scintillation cocktail.
Nonspecific binding was defined as the binding which occurred in the presence of 1 mM theophylline. The concentration of test agent which inhibited 50% of the specific binding (IC50) was determined by nonlinear computer curve fit. The Scatchard plot was calculated by linear regression of the line obtained by plotting the amount of radioligand bound (pmoles/gram of tissue) [formula] Since the amount of radioligand bound was a small fraction of the total amount added, free radioligand was defined as the concentration (nM) of radioligand added to the incubation mixture. The Hill coefficient was calculated by linear regression of the line obtained by plotting the log of the bound radioligand vs the log of the [formula] The maximal number of binding sites (Bmax) was calculated from the Scatchard plot.

[2] = lowest dose at which an A rating is achieved, screen test, intraperitoneal, 1 h prior to testing

T1 sequence (P30543 whole entry): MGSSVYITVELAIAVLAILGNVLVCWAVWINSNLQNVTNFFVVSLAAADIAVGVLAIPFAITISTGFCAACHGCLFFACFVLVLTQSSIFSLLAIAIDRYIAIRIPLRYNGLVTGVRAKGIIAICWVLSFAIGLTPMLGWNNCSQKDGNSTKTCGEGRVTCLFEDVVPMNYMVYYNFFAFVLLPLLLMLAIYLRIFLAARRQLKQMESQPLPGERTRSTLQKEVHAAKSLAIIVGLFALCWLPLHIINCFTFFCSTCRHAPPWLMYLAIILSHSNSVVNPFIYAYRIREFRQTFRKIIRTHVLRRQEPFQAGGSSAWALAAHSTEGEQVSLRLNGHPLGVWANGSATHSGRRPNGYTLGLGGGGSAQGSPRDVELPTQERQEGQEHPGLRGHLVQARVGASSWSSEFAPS

Structure (SMILES) | Inhibition of screen test failure ([1]; 10 mg/kg intraperitoneal) [%] | Inhibition of screen test failure ([1]; 30 mg/kg intraperitoneal) [%] | Inhibition of screen test failure ([1]; 100 mg/kg intraperitoneal) [%] | minimal effective dose [1, 2] [mg/kg] | IC50 (adenosine A2 receptor) [µM] | IC50 (adenosine A1 receptor) [µM] | minimal effective dose ([1]; 1 h) [mg/kg]
OC[C@H]1O[C@@H](n2cnc3c(NCC(c4ccccc4)c4ccccc4)nc(Cl)nc32)[C@H](O)[C@@H]1O [Example 3, N^6-(2,2-Diphenylethyl)-2-chloroadenosine] | 0 | 11 | 44 | > 100 | 0.139 | 0.067 | 
Nc1nc(NCC(c2ccccc2)c2ccccc2)c2ncn([C@@H]3O[C@H](CO)[C@@H](O)[C@H]3O)c2n1 [Example 4, N^6-(2,2-Diphenylethyl)-2-aminoadenosine] | 0 | 11 | 22 | > 100 | 0.275 | 0.089 | 
OC[C@H]1O[C@@H](n2cnc3c(NC(c4ccccc4)c4ccccc4)ncnc32)[C@H](O)[C@@H]1O [Example 5, N^6 -Diphenylmethyladenosine] |  |  |  | > 100 | 5.65 | 0.846 | 
OC[C@H]1O[C@@H](n2cnc3c(NCCCC(c4ccccc4)c4ccccc4)ncnc32)[C@H](O)[C@@H]1O [Example 6, N^6-(4,4-Diphenylbutyl)adenosine] |  |  |  | > 100 | 9.52 | 0.518 | 
OC[C@H]1O[C@@H](n2cnc3c(NCCCCC(c4ccccc4)c4ccccc4)ncnc32)[C@H](O)[C@@H]1O [Example 7, N^6-(5,5-Diphenylpentyl)adenosine] |  |  |  | > 100 | 3.29 | 0.147 | 
CC(CNc1ncnc2c1ncn2[C@@H]1O[C@H](CO)[C@@H](O)[C@H]1O)(c1ccccc1)c1ccccc1 [Example 8, N^6-(2,2-Diphenylpropyl)adenosine] |  |  |  | > 100 | 0.041 | 0.066 | 
Cc1cccc(C(CNc2ncnc3c2ncn3[C@@H]2O[C@H](CO)[C@@H](O)[C@H]2O)c2ccccc2)c1 (stereo partly drawn) [Example 9, N^6-(2-(3-Methylphenyl)-2-phenylethyl)adenosine] |  |  |  | 100 | 0.017 | 0.013 | 
OC[C@H]1O[C@@H](n2cnc3c(NCC(c4ccccc4)c4ccc(F)cc4)ncnc32)[C@H](O)[C@@H]1O (stereo partly drawn) [Example 10, N^6-(2-(4-Fluorophenyl)-2-phenylethyl)adenosine] |  |  |  | > 100 | 0.071 | 0.014 | 
OC[C@H]1O[C@@H](n2cnc3c(NCC(c4ccccc4)c4ccc(F)cc4)nc(Cl)nc32)[C@H](O)[C@@H]1O (stereo partly drawn) [Example 11, N^6-(2-(4-Fluorophenyl)-2-phenylethyl)-2-chloroadenosine] |  |  |  | > 100 | 0.21 | 0.069 | 
Nc1nc(NCC(c2ccccc2)c2ccc(F)cc2)c2ncn([C@@H]3O[C@H](CO)[C@@H](O)[C@H]3O)c2n1 (stereo partly drawn) [Example 12, N^6-(2-(4-Fluorophenyl)-2-phenylethyl)-2-amino adenosine] |  |  |  | > 100 | 0.303 | 0.094 | 
OC[C@H]1O[C@@H](n2cnc3c(NCC(c4ccccc4)c4cccc(Cl)c4)ncnc32)[C@H](O)[C@@H]1O (stereo partly drawn) [Example 14, N^6-(2-(3-Chlorophenyl)-2-phenylethyl)adenosine] |  |  |  | > 100 |  |  | 
Nc1nc(NCC(c2ccc(Cl)cc2)c2ccc(Cl)cc2)c2ncn([C@@H]3O[C@H](CO)[C@@H](O)[C@H]3O)c2n1 [Example 18] |  |  |  |  | 2.12 | 1.92 | 
O=[N+]([O-])c1ccc(C(CNc2ncnc3c2ncn3[C@@H]2O[C@H](CO)[C@@H](O)[C@H]2O)c2ccc([N+](=O)[O-])cc2)cc1 [Example 20] |  |  |  |  |  |  | > 100
O=P(O)(O)OC[C@H]1O[C@@H](n2cnc3c(NCC(c4ccccc4)c4ccccc4)ncnc32)[C@H](O)[C@@H]1O [Example 28, N^6-(2,2-Diphenylethyl)adenosine-5'-phosphate] |  |  |  | > 30 | ~0.02 |  | 
